From US8691184B2, “Bcl-2/Bcl-xL inhibitors and therapeutic methods using the same” (The Regents of the University of Michigan, priority 2011, dated 2014)

Legend:
cellular Bcl-2/Bcl-xL = assay: Competitive pull-down against Biotin-150 in ML-2 and H146 cell lysates; assay type: binding; conditions: competitive experiment
Bcl-2 = Bcl-2 (Homo sapiens, UniProt P10415); assay: FP-based binding assay, Bcl-2
Bcl-xL = Bcl-xL (Homo sapiens, UniProt Q07817); assay: FP-based binding assay, Bcl-xL; conditions: Table 2, FP-based assay
Sequence of Bcl-xL (Q07817 whole entry): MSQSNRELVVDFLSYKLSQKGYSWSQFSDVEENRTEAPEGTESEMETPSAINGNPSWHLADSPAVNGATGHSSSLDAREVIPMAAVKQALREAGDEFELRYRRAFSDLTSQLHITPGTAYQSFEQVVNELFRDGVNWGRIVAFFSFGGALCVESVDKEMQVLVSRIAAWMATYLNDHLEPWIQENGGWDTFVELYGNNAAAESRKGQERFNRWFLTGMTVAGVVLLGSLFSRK

[1] = tested on: ML-2 acute myeloid leukemia (AML) cell line; assay: Cell growth assay (WST-8), ML-2; assay type: cell-based; conditions: Table 3; read-out: Cell Growth Inhibition (IC50 ± SD) ML-2
ML-2 cell line = assay: Western blot of PARP and caspase-3 cleavage, ML-2; assay type: cell-based; conditions: as low as 100 nM, 8-hr treatment
Method: (§1) Cells were lysed with lysis buffer (PBS containing 1% NP40, 0.5% Na-deoxycholate, and 0.1% SDS) supplemented with protease inhibitors (α-complete, Roche). The protein extracts were quantified using a calorimetric assay (Bradford Reagent) (BioRad, Hercules, Calif.). Proteins were electrophoresed onto 4-20% SDS-PAGE gels (Invitrogen) and transferred onto polyvinylidene difluoride membranes (Bio-Rad). Following blocking in 5% milk, membranes were incubated with a specific primary antibody, washed, and incubated with horseradish peroxidase-linked secondary antibody (Pierce). The signals were visualized with the chemiluminescent horseradish peroxidase antibody detection reagent (Denville Scientific).

H146 cells = assay: Cell growth assay (WST-8), H146; assay type: cell-based; conditions: Homo sapiens, NCI-H146, 96 h; Table 3, 4 days; read-out: Cell Growth Inhibition (IC50 ± SD) H146
Method: (§2) RS4;11 and H146 cells were seeded in 96-well cell culture plates at a density of 10,000 cells/well with serially diluted compounds and incubated at 37° C. in an atmosphere of 95% air and 5% CO2 for 4 days. Cell viability was determined using the WST-8 (2-(2-methoxy-4-nitrophenyl)-3-(4-nitrophenyl)-5-(2,4-disulfophenyl)-2H-tetrazolium, monosodium salt) based Cell Counting-8 Kit (Dojindo Molecular Technologies, Inc., Rockville, Md.) according to the manufacture's instruction. Briefly, WST-8 was added to each well at a final concentration of 10% (v/v), and then the plates were incubated at 37° C. for 1˜2 hours for color development. The absorbance was measured at 450 nm using a SPECTRAmax PLUS plate reader (Molecular Devices, Sunnyvale, Calif.). The half maximal inhibitory concentration (IC50) was calculated using the GraphPad Prism 5 software (GraphPad Software, La Jolla, Calif.).

RS4;11 cell line [2] = assay: Apoptosis assay (Annexin-V/PI flow cytometry), RS4;11; assay type: cell-based; conditions: for RS4;11 cells undergoing apoptosis: within 4 hrs
Method: (§3) Apoptosis assay was performed using the Annexin-V-FLUOS Staining kit (Roche Diagnostics, Indianapolis, Ind.) according to the manufacturer's instruction. Briefly, cells were treated with compounds for the indicated time points, harvested and washed with PBS. Cells were stained with Annexin V-FITC and Propidium iodide for 15 minutes at room temperature in the dark before analyzed with a BD Biosciences FACSCaliburs (Becton Dickinson).

ML-2 AML cell line = assay: Apoptosis assay (Annexin-V/PI flow cytometry), ML-2; assay type: cell-based; conditions: 300 nM, 24 hr
Method: as §3

RS4;11 cells = assay: Cell growth assay (WST-8), RS4;11; assay type: cell-based; conditions: Homo sapiens, RS4-11, 96 h; Table 3, 4 days; read-out: Cell Growth Inhibition (IC50 ± SD) RS4; 11
Method: as §2

H146 cell line [3] = assay: Cytochrome c and Smac release assay, H146; assay type: cell-based; conditions: H146, 300 nM, within 2 hr
Method: (§4) Four million of H146 or RS4;11 cells were treated with compounds at 37° C. in an atmosphere of 95% air and 5% CO2 for the indicated time points, washed with PBS and re-suspended in 100 μl of digitonin buffer (75 mM NaCl, 8 mM Na2HPO4, 1 mM NaH2PO4, 1 mM EDTA, 350 μg/ml digitonin, and 250 mM sucrose). Cytosolic fractions were separated from organelle membrane fraction by centrifugation at 13,000 rpm for 1 min. The cytosolic fractions were resolved on a 12% SDS-PAGE and probed using anti-cytochrome c antibody (BD Biosciences) and anti-Smac (Cell Signaling Technology, Danvers, Mass.) antibody.
(§5) Potent and bona fide Bcl-2/Bcl-xL inhibitors are predicted to induce apoptosis in cancer cells by binding to cellular Bcl-2 and Bcl-xL proteins, antagonizing their anti-apoptotic function and triggering rapid release of Smac and cytochrome c from mitochondria. Furthermore, the release of Smac and cytochrome c should take place before apoptosis. Accordingly, compound 150 was tested for its ability to induce cytochrome c and Smac release in the RS4;11 and H146 cell lines.

H146 cell line [4] = assay: Western blot of PARP and caspase-3 cleavage, H146; assay type: cell-based; conditions: as low as 100 nM, 8-hr treatment
Method: as §1

[5] = tested on: H146 small-cell lung cancer cell line; assay: Cell death assay (trypan blue), H146; assay type: cell-based; conditions: for H146 cells undergoing cell death: 24-hr treatment, trypan blue
Method: Cell death assay was performed using a Trypan blue exclusion test of cell viability. One million cells were seeded in 6-well plates and incubated at 37° C. in an atmosphere of 95% air and 5% CO2 with or without compounds for the indicated time points. At the end of treatment, cells were collected and centrifuged at 1000 rpm for 5 minutes. The cell pellets were re-suspended in PBS and mixed with 0.4% Trypan blue (Invitrogen) at 1:1 dilution to determine cell viability using Olympus CKX41 microscope (Olympus, Center Valley, Pa.).

[6] = Toxicity (maximum tolerated dose) in SCID mice; assay type: in vivo; conditions: for Weight loss at higher dose: SCID mice; for Weight loss or other signs of toxicity: female SCID mice, intravenously, daily, 5-times a week for 2 weeks
Description: These experiments established the maximum tolerated doses (MTD).

RS4;11 cell line [7] = assay: Cytochrome c and Smac release assay, RS4;11; assay type: cell-based; conditions: RS4;11, 100 nM, within 30 minutes
Method: as §4, §5

RS4;11 cell line [8] = assay: Western blot of PARP and caspase-3 cleavage, RS4;11; assay type: cell-based; conditions: as low as 100 nM, 8-hr treatment
Method: as §1

H146 xenograft tumors [9] = assay: Antitumor activity in the H146 xenograft tumor model; assay type: in vivo
Method: The antitumor activity of compound 169 in the H146 xenograft tumor model also was tested. […] At the end of the treatment (day 39), compound 169 inhibited the tumor growth by 100% (p<0.0001, t-test).

H146 xenograft tumors [10] = assay: Apoptosis induction in H146 xenograft tumors; assay type: in vivo, SCID mice
Method: (§6) Compounds 150, 133, and 169 were tested for their toxicity in severe combined immunodeficiency (SCID) mice. SCID mice bearing xenograft tumors were treated with vehicle control, or a single dose of a compound, and tumors were removed at different time-points for western blot analysis of cleavage of PARP (CL-PARP) and caspase-3 (CL Cas-3). The ability of compounds 150 and 169 to induce apoptosis at their MTD in RS4;11 or H146 xenograft tumors in SCID mice was tested. In these experiments, RS4;11 or H146 tumors were allowed to grow to 200-300 mm^3 in female SCID mice. A single dose of the compound was administered to the animals and tumor tissues were analyzed for cleavage of PARP and caspase-3.

RS4;11 xenograft tumors = assay: Apoptosis induction in RS4;11 xenograft tumors; assay type: in vivo, SCID mice; conditions: RS4;11 model, single dose
Method: as §6

Sequence of Bcl-2 (P10415 whole entry): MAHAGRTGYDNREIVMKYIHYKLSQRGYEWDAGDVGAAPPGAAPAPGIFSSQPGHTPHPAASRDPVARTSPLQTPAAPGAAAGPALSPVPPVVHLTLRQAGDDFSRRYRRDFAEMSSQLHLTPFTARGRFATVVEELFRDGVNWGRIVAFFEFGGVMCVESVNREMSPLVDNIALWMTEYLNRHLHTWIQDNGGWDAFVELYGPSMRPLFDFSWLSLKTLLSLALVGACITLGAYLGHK

Cc1c(C(=O)NCCCN2CCN(C)CC2)c(-c2cccc(N3CCN(c4ccc(NS(=O)(=O)c5ccc(N[C@H](CCN(C)C)CSc6ccccc6)c([N+](=O)[O-])c5)cc4)CC3)c2)c(-c2ccc(Cl)cc2)n1C [Compound 150]
Blocking of interaction of cellular Bcl-2/Bcl-xL with Biotin-150 (cellular Bcl-2/Bcl-xL): blocked the interaction of cellular Bcl-2/Bcl-xL and Biotin-150 in a dose-dependent manner
Ki (Bcl-2): < 1 nM
IC50 (Bcl-2; read-out: Bcl-2 IC50 ± SD, Table 2, FP-based assay): 2 ± 0.6 nM
IC50 (Bcl-xL; read-out: Bcl-xL IC50 ± SD): 9 ± 2 nM
Ki (Bcl-xL; read-out: Bcl-xL Ki ± SD, no unit printed in this row): 2.4 ± 0.5 nM
IC50 [1]: 185 ± 84 nM
Cleavage of PARP and caspase-3 (ML-2 cell line): highly effective in induction of cleavage of PARP and caspase-3
IC50 (H146 cells): 102 ± 44 nM
RS4;11 tumor cells undergoing apoptosis (RS4;11 cell line [2]; 100 nM, 16 hr time-point): > 50%
RS4;11 cells undergoing apoptosis (RS4;11 cell line [2]; 100 nM, Annexin-V/PI): 30%
RS4;11 cells undergoing apoptosis (RS4;11 cell line [2]; 300 nM, Annexin-V/PI): 60%
Apoptosis induction in RS4;11 (RS4;11 cell line [2]; time- and dose-dependent, Annexin-V/PI): highly effective in induction of apoptosis
ML-2 cells undergoing apoptosis (ML-2 AML cell line): about 50%
IC50 (RS4;11 cells): 38 ± 24 nM
Release of cytochrome c and Smac from mitochondria (H146 cell line [3]): strong release of cytochrome c and Smac
Cleavage of PARP and caspase-3 (H146 cell line [4]): highly effective in induction of cleavage of PARP and caspase-3
H146 cells undergoing cell death ([5]; 30 nM): 40%
H146 cells undergoing cell death ([5]; 100 nM): > 70%
Cell death induction in H146 ([5]; trypan blue assay): effectively induced cell death
Weight loss at higher dose ([6]; 50 mg/kg): caused weight loss
Weight loss or other signs of toxicity ([6]; 25 mg/kg): no or minimal weight loss or other signs of toxicity
Release of cytochrome c and Smac from mitochondria (RS4;11 cell line [7]): robust release of cytochrome c and Smac
Cleavage of PARP and caspase-3 (RS4;11 cell line [8]): highly effective in induction of cleavage of PARP and caspase-3

Cc1c(C(=O)O)c(-c2cccc(N3CCN(c4ccc(NS(=O)(=O)c5ccc(N[C@H](CCN6CCC(O)CC6)CSc6ccccc6)c(S(=O)(=O)C(F)(F)F)c5)cc4)CC3)c2)c(-c2ccc(Cl)cc2)n1C.Cl [Compound 169, (R)-5-(4-chlorophenyl)-4-(3-(4-(4-(4-((4-(4-hydroxypiperidin-1-yl)-1-(phenylthio)butan-2-yl)amino)-3-((trifluoromethyl)sulfonyl)phenylsulfonamido)phenyl)piperazin-1-yl)phenyl)-1,2-dimethyl-1H-pyrrole-3-carboxylic acid]
Tumor growth inhibition versus vehicle-treated tumors (H146 xenograft tumors [9]; day 53, 2 weeks after the treatment was stopped, p=0.0001): 79%
Other signs of toxicity (H146 xenograft tumors [9]; during the entire experiment): no other signs of toxicity
Weight loss (H146 xenograft tumors [9]; during the entire experiment): < 3%
Tumor growth inhibition (H146 xenograft tumors [9]; end of the treatment (day 39), p<0.0001): 100%
Cleavage of PARP and caspase-3 in xenograft tumor tissues (H146 xenograft tumors [10]; H146, single-dose 50 mg/kg IV, 3 hr and 6 hr-time points): induced cleavage of PARP and caspase-3
Cleavage of PARP and caspase-3 in tumor tissues (H146 xenograft tumors [10]; H146 model, single dose): strong effect in induction of cleavage of PARP and caspase-3
Cleavage of PARP and caspase-3 in tumor tissues (RS4;11 xenograft tumors): strong effect in induction of cleavage of PARP and caspase-3
Weight loss at higher dose ([6]; 75 mg/kg): caused weight loss
Weight loss or other signs of toxicity [6]: no or minimal weight loss or other signs of toxicity
